Common to all, as to type: cell-based
Data set [1] is described as follows: In vitro cytotoxicity assay in HepG2 cells, CCK-8 method. The conditions noted are these: human. On the procedure: In vitro cytotoxicity assay for the compounds disclosed herein was performed in HepG2 cells using the CCK-8 method. HepG2 cells (Beina Bio) in the logarithmic growth phase were collected, the concentration of cell suspension was adjusted, and then the cells were plated on a 96-well cell culture plate at 50,000 cells/well. The cells were then incubated overnight in a cell incubator (5% CO2, 37° C.), and after 80-90% cell confluence was achieved, test compounds or vehicle (DMSO) at various concentration gradients were added after medium change. The resulting mixture was incubated in the cell incubator (5% CO2, 37° C.) for 48 h. After the treatment, the medium in the plate was discarded. The plate was washed twice with PBS, added with CCK-8 working solution (Beyotime) at 100 μL per well, and then incubated at 37° C. for 1.5 h away from the light. Absorbance at OD450 nm was measured for each well on a microplate reader, and CC50 value of each compound was analyzed and calculated.

In data set [2] the test system is A2058 (human melanoma cells). The experiment in a line: A2058 cell scratch (migration) assay with LPA. The conditions noted are these: 10 μM LPA, scratch area at 24 h. How it is done: The activity of the compounds disclosed herein at the cell level in vitro is evaluated by A2058 (human melanoma cells, Beina Bio, BNCC341099) cell scratch assay. The inhibitory activity of the compounds against LPAR1 can be reflected by inhibition of cell scratch healing.
After the cell confluence reached 80%, the cell culture plate was taken out and the original medium was discarded. Serum-free medium was then added, and the cells were starved overnight in an incubator (37° C., 5% CO2). The cell culture plate was then taken out, and cell scratches were made along the diameter of the wells using a 200 μL pipette tip. The cell culture plate was then added with 500 μL of serum-free medium and then shaken gently to wash away the residual cells on the scratched surface, and this was repeated twice. The medium was discarded and 500 μL of 1% FBS medium containing the compound was then added, and the mixture was incubated at 37° C. for 30 min. […] Olympus CKX53 was used to observe the scratches, and MShot image analysis system was used to take pictures and measure the scratch area at 0 h. The plate was incubated in the incubator under the conditions of 37° C. and 5% CO2. 24 h later, the scratches were observed again with Olympus CKX53, and MShot image analysis system was used to take pictures and measure the scratch area at 24 h. Cell migration inhibition rate was calculated according to the following formula: […]

In data set [3] the target is hLPAR1 (human lysophosphatidic acid receptor 1) (Homo sapiens, UniProt Q92633). Description: FLIPR assay of intracellular calcium increase induced by activation of hLPAR1 expressed in CHO-K1 cells. The following applies: CHO-K1 cells expressing hLPAR1, agonist oleoyl-L-α-lysophosphatidic acid 1 μM; read-out: LPAR1 IC50. On the procedure:
The antagonist property of the compounds disclosed herein was determined using the FLIPR (fluorescence imaging plate reader) method, wherein the compounds are inhibitors for the intracellular calcium increase induced by activation of hLPAR1 (human lysophosphatidic acid receptor 1, accession No. NM_001401.4) expressed in CHO-K1 cells (Chinese hamster ovary cells K1, ATCC).
Cells at 250,000 cells/mL were seeded into a 96-well plate (25,000 cells/well) 18-24 h prior to the FLIPR experiment and then incubated overnight in a cell incubator. […] Each well was added with 75 μL of […] Fluo-4 AM fluorescent dye (Thermo, F14202) and then the cells were subjected to dye-loading incubation at 37° C. for 1.0 h. The 96-well plate was then washed once with buffer, added with a buffer containing a test compound or a vehicle at 50 μL per well and then incubated for 30 min at room temperature. […] An agonist (oleoyl-L-α-lysophosphatidic acid sodium salt (Sigma, L7260)) at a final concentration of 1 μM or a vehicle (ultrapure water) was then added at 50 μL/well, fluorescence values were measured for 2 min at 1-second intervals, and finally the output fluorescence counts were analyzed.
A general note: Calcium assays in cells follow changes in intracellular calcium, usually with a dye or a luminescent sensor.

Chain of hLPAR1 (human lysophosphatidic acid receptor 1) (Q92633 whole entry): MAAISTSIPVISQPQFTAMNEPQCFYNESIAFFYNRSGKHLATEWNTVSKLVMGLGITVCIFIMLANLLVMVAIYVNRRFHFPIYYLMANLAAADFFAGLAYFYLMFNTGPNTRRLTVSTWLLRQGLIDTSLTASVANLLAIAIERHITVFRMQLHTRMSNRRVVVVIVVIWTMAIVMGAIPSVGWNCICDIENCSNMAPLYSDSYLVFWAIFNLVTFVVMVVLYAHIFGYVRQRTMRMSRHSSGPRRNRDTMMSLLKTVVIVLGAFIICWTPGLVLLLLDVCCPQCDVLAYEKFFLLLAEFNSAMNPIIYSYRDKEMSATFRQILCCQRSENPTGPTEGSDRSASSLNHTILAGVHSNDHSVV

For `Cc1nc(-c2snc(C)c2COC(=O)N(C)C2CCCC2)ccc1O[C@H]1CCC[C@H](C(=O)O)C1` (racemic) [Compound 40], in data set [1], the CC50 (in general, the concentration at which the toxic effect on the cells reaches its halfway point) at 48 h was over 200000 nM. The “Cell migration inhibition rate (%)” value in data set [2] is given as “A (A: 50-70%)”. In addition, the IC50 (as a rule, the concentration that inhibits the measured activity by half) in data set [3] was under 50 nM.
As to `Cc1noc(-c2ccc(O[C@H]3CCC[C@H](C(=O)O)C3)cn2)c1COC(=O)N(C)C1CCCC1` (racemic) [Compound 35, (+/−)-(1S,3S)-3-((6-(4-(((cyclopentyl(methyl)carbamoyl)oxy)methyl)-3-methylisoxazol-5-yl)pyridin-3-yl)oxy)cyclohexane-1-carboxylic Acid], the CC50 at 48 h in data set [1] was over 200000 nM. Besides, in data set [2], the “Cell migration inhibition rate (%)” value is recorded as “B (B: 30-50%)”.
As for `Cc1coc(-c2ccc(O[C@H]3CCC[C@H](C(=O)O)C3)c(C)n2)c1COC(=O)N(C)C1CCCC1` (racemic) [Compound 45], the CC50 at 48 h in data set [1] is over 200000 nM. The “Cell migration inhibition rate (%)” value in data set [2] is reported as “A (A: 50-70%)”. For the same compound, in data set [3], the IC50 is under 50 nM.
Taken in the same sequence, the figures for `Cc1nc(-c2cnnc(C)c2COC(=O)N(C)C2CCCC2)ccc1O[C@H]1CCC[C@H](C(=O)O)C1` (racemic) [Compound 52] were over 200000 nM, “B (B: 30-50%)” and under 50 nM.
Regarding `Cc1nc(-c2[nH]nc(C)c2COC(=O)N(C)C2CCCC2)ccc1O[C@H]1CCC[C@H](C(=O)O)C1` (racemic) [Compound 53], the CC50 at 48 h in data set [1] is over 200000 nM. The “Cell migration inhibition rate (%)” value in data set [2] was “A (A: 50-70%)”. Besides, the IC50 in data set [3] is under 50 nM.
`Cc1cnn(-c2ccc(O[C@H]3CCC[C@H](C(=O)O)C3)cc2)c1COC(=O)N(C)C1CCCC1` (racemic) [Compound 30, (+/−)-(1S,3S)-3-(4-(5-(((cyclopentyl(methyl)carbamoyl)oxy)methyl)-4-methyl-1H-pyrazol-1-yl)phenoxy)cyclohexanoic Acid]: the CC50 at 48 h in data set [1] was over 200000 nM. Moreover, in data set [2], the “Cell migration inhibition rate (%)” value is “B (B: 30-50%)”. Further, in data set [3], the IC50 is under 50 nM.
In turn, `Cc1nc(-c2c[nH]c(C)c2COC(=O)N(C)C2CCCC2)ccc1O[C@H]1CCC[C@H](C(=O)O)C1` (racemic) [Compound 41] showed a CC50 at 48 h in data set [1] of over 200000 nM. For the same compound, in data set [2], the “Cell migration inhibition rate (%)” value was “B (B: 30-50%)”. Moreover, the IC50 in data set [3] is under 50 nM.
For `CN(C(=O)OCc1c(-c2cnc(O[C@H]3CCC[C@H](C(=O)O)C3)c(C#N)n2)cnn1C)C1CCCC1` (racemic) [Compound 104, (+/−)-(1S,3S)-3-((3-cyano-5-(5-(((cyclopentyl(methyl)carbamoyl)oxy)methyl)-1-methyl-1H-pyrazol-4-yl)pyrazin-2-yl)oxy)cyclohexane-1-carboxylic Acid], the “Cell migration inhibition rate (%)” value in data set [2] was “C (C: 0-30%)”. Also, the IC50 in data set [3] was under 50 nM.
Taken in the same sequence, the figures for `CN(C(=O)OCc1c(-c2cnc(O[C@H]3CCC[C@H](C(=O)O)C3)c(N)n2)cnn1C)C1CCCC1` (racemic) [Compound 94, (+/−)-(1S,3S)-3-((3-amino-5-(5-(((cyclopentyl(methyl)carbamoyl)oxy)methyl)-1-methyl-1H-pyrazol-4-yl)pyrazin-2-yl)oxy)cyclohexane-1-carboxylic Acid] were “C (C: 0-30%)” and 300 to 10000 nM.
The corresponding values for `CN(C(=O)OCc1c(-c2ccc(O[C@H]3CCC[C@H](C(=O)O)C3)c(C#N)n2)cnn1C)C1CCC1` (racemic) [Compound 112, (+/−)-(1S,3S)-3-((2-cyano-6-(5-(((cyclobutyl(methyl)carbamoyl)oxy)methyl)-1-methyl-1H-pyrazol-4-yl)pyridin-3-yl)oxy)cyclohexane-1-carboxylic Acid] are “B (B: 30-50%)” and 50 to 300 nM.
Taken in the same sequence, the figures for `CN(C(=O)OCc1c(-c2ccc(O[C@H]3CCC[C@H](C(=O)O)C3)c(N)n2)cnn1C)C1CCC1` (racemic) [Compound 113, (+/−)-(1S,3S)-3-((2-amino-6-(5-(((cyclobutyl(methyl)carbamoyl)oxy)methyl)-1-methyl-1H-pyrazol-4-yl)pyridin-3-yl)oxy)cyclohexane-1-carboxylic Acid] were “C (C: 0-30%)” and 300 to 10000 nM.
As for `CN(C(=O)OCc1c(-c2cnc(O[C@H]3CCC[C@H](C(=O)O)C3)c(Cl)n2)cnn1C)C1CCCC1` [Compound 105], the “Cell migration inhibition rate (%)” value in data set [2] was “B (B: 30-50%)”. The IC50 in data set [3] is under 50 nM.
The corresponding values for `Cc1onc(-c2cnc(O[C@H]3CCC[C@H](C(=O)O)C3)cn2)c1COC(=O)N(C)C1CCCC1` (racemic) [Compound 102] are “A (A: 50-70%)” and under 50 nM.
Taken in the same sequence, the figures for `Cc1nc(-c2cnn(C)c2COC(=O)N2CC3CCC(C2)O3)ccc1O[C@H]1CCC[C@H](C(=O)O)C1` (racemic) [Compound 65, (+/−)-(1R,3R)-3-((6-(5-(((8-oxa-3-azabicyclo[3.2.1]octane-3-carbonyl)oxy)methyl)-1-methyl-1H-pyrazol-4-yl)-2-methylpyridin-3-yl)oxy)cyclohexane-1-carboxylic Acid] were “C (C: 0-30%)” and 300 to 10000 nM.
The corresponding values for `Cc1nc(-c2onc(C)c2COC(=O)N(C)C2CCCC2)ncc1O[C@H]1CCC[C@H](C(=O)O)C1` (racemic) [Compound 91, (+/−)-(1S,3S)-3-((2-(4-(((cyclopentyl(methyl)carbamoyl)oxy)methyl)-3-methylisoxazol-5-yl)-4-methylpyrimidin-5-yl)ox)cyclohexane-1-carboxylic Acid] are “C (C: 0-30%)” and under 50 nM.
Consider `CN(C(=O)COc1c(-c2ccc(O[C@H]3CCC[C@H](C(=O)O)C3)c(N3CCOCC3)n2)cnn1C)C1CCC1` (racemic) [Compound 115], for which the “Cell migration inhibition rate (%)” value in data set [2] is listed as “C (C: 0-30%)”. In addition, the IC50 in data set [3] fell in the range of 300 to 10000 nM.
`CN(C(=O)OCc1c(-c2ccc(O[C@H]3CCC[C@H](C(=O)O)C3)c(CO)n2)cnn1C)C1CCC1` (racemic) [Compound 116, (+/−)-(1S,3S)-3-((6-(5-(((cyclobutyl(methyl)carbamoyl)oxy)methyl)-1-methyl-1H-pyrazol-4-yl)-2-(hydroxymethyl)pyridin-3-yl)oxy)cyclohexane-1-carboxylic Acid]: in data set [2], the “Cell migration inhibition rate (%)” value is “B (B: 30-50%)”. Further, the IC50 in data set [3] lay within 300 to 10000 nM.
`CN(C(=O)OCc1c(-c2ccc(O[C@H]3CCC[C@H](C(=O)O)C3)c(F)n2)cnn1C)C1CCC1` (racemic) [Compound 109, (+/−)-(1S,3S)-3-((6-(5-(((cyclobutyl(methyl)carbamoyl)oxy)methyl)-1-methyl-1H-pyrazol-4-yl)-2-fluoropyridin-3-yl)oxy)cyclohexane-1-carboxylic Acid]: the “Cell migration inhibition rate (%)” value in data set [2] is listed as “A (A: 50-70%)”. Moreover, in data set [3], the IC50 lay in the range of 50 to 300 nM.
Turning to `CN(C(=O)OCc1c(-c2cnc(O[C@H]3CCC[C@H](C(=O)O)C3)c(O)n2)cnn1C)C1CCCC1` (racemic) [Compound 117], the “Cell migration inhibition rate (%)” value in data set [2] is listed as “B (B: 30-50%)”. Besides, in data set [3], the IC50 was in the range of 300 to 10000 nM.
Turning to `CN(C(=O)OCc1c(-c2ccc(O[C@H]3CCC[C@H](C(=O)O)C3)c(F)n2)cnn1C)C1CC1` (racemic) [Compound 108, (+/−) (1S,3S)-3-((6-(5-(((cyclopropyl(methyl)carbamoyl)oxy)methyl)-1-methyl-1H-pyrazol-4-yl)-2-fluoropyridin-3-yl)oxy)cyclohexane-1-carboxylic Acid], the “Cell migration inhibition rate (%)” value in data set [2] is “B (B: 30-50%)”. For the same compound, in data set [3], the IC50 is 300 to 10000 nM.
Taken in the same sequence, the figures for `Cc1nc(-c2cnn(C)c2COC(=O)N(C)CC2COC2)ccc1O[C@H]1CCC[C@H](C(=O)O)C1` (racemic) [Compound 97] were “C (C: 0-30%)” and 300 to 10000 nM.

Values taken from patent US12377083B2 (WUHAN LL SCIENCE AND TECHNOLOGY DEVELOPMENT CO., LTD., priority 2019, dated 2025).
